In brackets after ≈: the same amount, converted by molar mass. Activity calls are given as the source filed them. No cut-off for these calls is given here.
Tests used:
Cell membrane [1] = assay: Induction of membrane depolarization in methicillin-resistant Staphylococcus aureus ATCC 33591 assessed as depolarized bacterial cells by measuring green fluorescence at 10 to 15 ug/ml incubated for 4 hrs by DiOC2(3) dye based flow cytometry analysis (reference value: 27.3%); type: cell membranes; conditions: dose 10-15 µg/ml
Cell membrane [2] = assay: Induction of membrane depolarization in methicillin-resistant Staphylococcus aureus ATCC 33591 assessed as depolarized bacterial cells by measuring red fluorescence at 10 to 15 ug/ml incubated for 4 hrs by DiOC2(3) dye based flow cytometry analysis (reference value: 63.8%); type: cell membranes; conditions: dose 10-15 µg/ml
Cell membrane [3] = assay: Induction of membrane depolarization in methicillin-resistant Staphylococcus aureus ATCC 33591 assessed as depolarized bacterial cells by measuring red to green fluorescence ratio at 10 to 15 ug/ml incubated for 4 hrs by DiOC2(3) dye based flow cytometry analysis; type: cell membranes; conditions: dose 10-15 µg/ml
Staphylococcus aureus [4] = assay: Antibacterial activity against vancomycin-resistant Staphylococcus aureus 1 incubated for 16 to 18 hrs by broth dilution method; type: functional; conditions: time 16-18 hrs
Staphylococcus aureus [5] = assay: Antibacterial activity against vancomycin-resistant Staphylococcus aureus 4 incubated for 16 to 18 hrs by broth dilution method; type: functional; conditions: time 16-18 hrs
Enterococcus faecium [6] = assay: Antibacterial activity against vancomycin-resistant Enterococcus faecium 903 incubated for 16 to 18 hrs by broth dilution method; type: functional; conditions: time 16-18 hrs
Enterococcus faecium [7] = assay: Antibacterial activity against vancomycin-resistant Enterococcus faecium 909 incubated for 16 to 18 hrs by broth dilution method; type: functional; conditions: time 16-18 hrs
Staphylococcus aureus [8] = assay: Antibiofilm activity against methicillin-resistant Staphylococcus aureus ATCC 33591 assessed as eradication of enclosed biofilm measuring by reduction in green fluorescence at 32 ug/ml by Syto-9/PI staining based confocal laser scanning microscopy; type: functional, organism-based; conditions: dose 32.0 µg/ml
Escherichia coli = assay: Antibacterial activity against Escherichia coli MTCC 443 incubated for 16 to 18 hrs by broth dilution method; type: functional; conditions: time 16-18 hrs

For `N#CC(C#N)=NNc1cccc(Cl)c1`, the Activity (Cell membrane [1]) was 47.8%, the Activity (Cell membrane [2]) was 49.1% and the Ratio (Cell membrane [3]) was 1.1.

`CN[C@H](CC(C)C)C(=O)N[C@H]1C(=O)N[C@@H](CC(N)=O)C(=O)N[C@H]2C(=O)N[C@H]3C(=O)N[C@H](C(=O)N[C@H](C(=O)O)c4cc(O)cc(O)c4-c4cc3ccc4O)[C@H](O)c3ccc(c(Cl)c3)Oc3cc2cc(c3O[C@@H]2O[C@H](CO)[C@@H](O)[C@H](O)[C@H]2O[C@H]2C[C@](C)(N)[C@H](O)[C@H](C)O2)Oc2ccc(cc2Cl)[C@H]1O` [VANCOMYCIN] gave an MIC (Staphylococcus aureus [4]) of 512 µg/mL (≈ 353 µM), an MIC (Staphylococcus aureus [5]) of 512 µg/mL (≈ 353 µM) and an MIC (Enterococcus faecium [6]) of 1020 µg/mL (≈ 707 µM). For the same compound, the MIC (Enterococcus faecium [7]) was 512 µg/mL (≈ 353 µM) and the Activity (Staphylococcus aureus [8]) was “inactive”.

For COLISTIN, the MIC (Escherichia coli) was 1 µg/mL.
